Results as given in US8480638B2, “Intraocular iontophoretic device and associated methods” (Aciont, Inc., priority 2007, dated 2013).

Key:
[1] = MRI distribution of Mn^++ in the rabbit eye after iontophoresis with a handheld ocular iontophoretic device; assay type: in vivo; conditions: finger pressure, hydrogel 1.0M Mn^++, 2 mA for 20 minutes, return electrode on ear, 3 Tesla MRI, FIG. 7
Excerpt: A handheld ocular iontophoretic device is constructed from a plastic tube, wherein one end is shaped to conform to the eye of a rabbit. An electroplated AgAgCl electrode is positioned in one end of the plastic tube and a hydrogel is inserted into the tube so that one side of the hydrogel contacts the electrode, while the opposite side is configured to contact the eye. The hydrogel has been previously loaded with 1.0M Mn^++. The iontophoretic device is coupled to a power source and placed against the surface of an eye of a rabbit, partially within the cul-de-sac in a dorsal location. A return electrode is attached to the ear of the rabbit, and finger pressure is used to seal the device against the eye. 2 mA of current is applied to the iontophoretic device for 20 minutes to deliver the Mn^++ from the hydrogel and into the eye.

[2] = MRI distribution of Mn^++ in the rabbit eye after iontophoresis with an iontophoretic scleral lens device with suction; assay type: in vivo; conditions: suction applied, hydrogel 1.0M Mn^++, 3 mA for 20 minutes, 3 Tesla MRI, FIG. 8
Excerpt: An iontophoretic scleral lens device is configured to conform to the eye of a rabbit. An electroplated AgAgCl electrode coupled to a 1.0M Mn^++ filled hydrogel is located within a reservoir structure along the contact surface of the scleral lens. The iontophoretic device is coupled to a power source and positioned on an eye of a rabbit, such that the reservoir is located partially within the cul-de-sac in a dorsal region of the eye. A return electrode is attached to the ear of the rabbit, and suction is applied to the scleral lens to preclude movement of the lens relative to the eye surface. 3 mA of current is applied to the scleral lens device for 20 minutes to deliver the Mn^++ from the hydrogel and into the eye. […] Diffusion from this region can be seen in the white band extending toward the posterior eye tissues.

In the case of [Mn+2] [Mn^++], the “Distribution of the Mn^++ within the eye of the rabbit (MRI, white contrast)” value [1] is reported as “delivered primarily to the eyelid and surrounding tissues with relatively little delivery into the eye itself”, the “Depot formation in the eye (MRI, black region along the dorsal region of the eye)” value [2] is reported as “formation of a depot of concentrated Mn^++” and the “Distribution of the Mn^++ within the eye of the rabbit (MRI, white contrast)” value ([2]; return electrode on ear) is reported as “delivered primarily into the eye tissues”.
